Data set [1] is described as follows: in vitro. As to conditions: Wistar, rat, liver S9 fractions.
Data set [2] can be described thus: in vitro. To be noted: human, liver S9 fractions.
Data set [3] concerns the target T1, Platelet-activating factor acetylhydrolase (Mus musculus) (UniProt Q60963).
T1 sequence (whole entry): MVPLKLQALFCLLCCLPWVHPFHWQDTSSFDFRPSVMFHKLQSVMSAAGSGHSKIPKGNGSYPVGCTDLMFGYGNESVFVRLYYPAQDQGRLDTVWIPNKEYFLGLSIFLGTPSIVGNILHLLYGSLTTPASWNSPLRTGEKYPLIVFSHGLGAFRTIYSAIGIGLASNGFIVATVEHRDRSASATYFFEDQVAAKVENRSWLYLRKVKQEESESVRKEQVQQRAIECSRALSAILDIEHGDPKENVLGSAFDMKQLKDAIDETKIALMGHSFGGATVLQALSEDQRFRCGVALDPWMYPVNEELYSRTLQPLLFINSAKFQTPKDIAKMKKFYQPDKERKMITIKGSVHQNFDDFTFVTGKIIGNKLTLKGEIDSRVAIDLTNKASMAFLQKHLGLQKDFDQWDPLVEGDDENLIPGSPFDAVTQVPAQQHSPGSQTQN
To be noted: Plasma, at 1 µM.
Description: Inhibition of Lp-PLA2 in mouse plasma at 1 uM using 2-thio-PAF substrate after 10 mins

Data set [4] is described as follows: in vivo. As to conditions: Sprague-Dawley, rat, po, 25 mg/kg.
Description: Terminal half life in Sprague-Dawley rat at 25 mg/kg, po after 48 hrs by LC-MS method
The test system of data set [5] is Rattus norvegicus. The data set can be described thus: In vivo inhibition of Lp-PLA2 in Sprague-Dawley rat at 25 mg/kg, po after 5 hrs. The format is functional.
The nature of data set [6]: in vivo. As to conditions: Sprague-Dawley, rat, po, 25 mg/kg. The source holds these as a separate data set.
Description: Cmax in Sprague-Dawley rat at 25 mg/kg, po after 48 hrs by LC-MS method
The species named for data set [7] is Rattus norvegicus. To be noted: Sprague-Dawley, Plasma, 10 nM.
Description: Inhibition of Lp-PLA2 in Sprague-Dawley rat plasma at 10 nM using 2-thio-PAF substrate after 10 mins
Data set [8] addresses T1, Platelet-activating factor acetylhydrolase (Mus musculus). To be noted: Plasma, at 100 nM.
Data set [9] is filed under the species Rattus norvegicus. As to conditions: Sprague-Dawley, 25 mg/kg.
Description: In vivo inhibition of Lp-PLA2 in Sprague-Dawley rat at 25 mg/kg, po measured over 24 hrs
A short description of data set [10]: in vivo. To be noted: Sprague-Dawley, rat, po, 25 mg/kg. This is another data set of the same source.
Description: AUC (0 to infinity) in Sprague-Dawley rat at 25 mg/kg, po after 48 hrs by LC-MS method
Data set [11] in a line: Terminal half life in Sprague-Dawley rat at 50 mg/kg, po after 48 hrs by LC-MS method. The format is ADME, organism-based. As to conditions: in vivo, read-out: beta t1/2 (converted).
Data set [12] can be described thus: AUC (0 to infinity) in Sprague-Dawley rat at 50 mg/kg, po after 48 hrs by LC-MS method. As to conditions: in vivo. The format is ADME, organism-based. Further details: dose 50 mg/kg, route oral, time infinity.
Data set [13] in a line: Cmax in Sprague-Dawley rat at 50 mg/kg, po after 48 hrs by LC-MS method. To be noted: in vivo. The format is ADME, organism-based. Set-up: dose 50 mg/kg, route oral.
Data set [14] in a line: in vitro. As to conditions: human, liver S9 fractions. The source holds these as a separate data set.
The nature of data set [15]: in vitro. As to conditions: Wistar, rat, liver S9 fractions. This is another data set of the same source.

Active and inactive are the calls of the source. No cut-off for these calls is given here.

In general, inhibition refers to the share of the control response that was lost under treatment. Broadly, the inhibition in vivo is the relative decrease from the control value, in per cent. As a reminder, the Cmax is the peak of the concentration-time curve. The AUC(0-inf) is the area under the concentration-time curve extrapolated to infinity. Low values mean low exposure, high ones high exposure. As usually defined, the CLint scaled is the capacity of the preparation to metabolise the compound, expressed as a volume cleared per time. A high value points to faster metabolism.

Consider `FC(F)(F)c1cc(Oc2ccc(COc3ccn4c(-c5cncnc5)cnc4n3)cc2)ccc1Cl`, for which the figures for the half-life at 0.1 µM in the data set “in vitro [1]” and in the data set “in vitro [2]” were 348 min and 116 min, respectively. Also, the inhibition was 56% in data set [3], 10% in the data set listed under Rattus norvegicus [7] and 10% in [8]. In the data set “in vivo [4]”, the half-life at 48 h was 566 min. This compound also came in with an inhibition in vivo at 25 mg/kg with Rattus norvegicus [5] of 75%. Besides, the Cmax at 48 h in “in vivo [6]” was 3520 ng/mL. For the same compound, the inhibition result in the data set filed under Rattus norvegicus [9] was “Active”. In “in vivo [10]”, this compound showed an AUC(0-inf) at 48 h of 88000 ng·h/mL.

Turning to `N#Cc1cc(COc2ccn3c(-c4cncnc4)cnc3n2)ccc1Oc1ccc(Cl)c(C(F)(F)F)c1`, the values for the half-life at 0.1 µM in the data set “in vitro [1]” and in “in vitro [2]” were 40 min and 106 min, respectively. Also, the inhibition in data set [3] stood at 0%; in the data set listed under Rattus norvegicus [7], 14%. Further, the half-life at 48 h in the data set “in vivo [4]” was 194 min. For the same compound, in the data set “in vivo [6]”, the Cmax at 48 h amounted to 1400 ng/mL. The same compound gave an AUC(0-inf) at 48 h in the data set “in vivo [10]” of 16100 ng·h/mL.

`Cn1cc(-c2cnc3nc(OCc4ccc(Oc5ccc(Cl)c(C(F)(F)F)c5)cc4)ccn23)cn1`: in “in vitro [2]”, the half-life at 0.1 µM was 180 min. Moreover, the inhibition turned out to be 28% in data set [3] and 13% in the data set filed under Rattus norvegicus [7].

For `CCN(CC)CCN(Cc1ccc(-c2ccc(C(F)(F)F)cc2)cc1)C(=O)Cn1c(SCc2ccc(F)cc2)nc(=O)c2c1CCC2` [DARAPLADIB], the inhibition in [3] was determined as 99%; in data set [8] it was 96%. Moreover, in data set [11], the half-life is 690 min. The AUC(0-inf) in data set [12] is 2110 ng·h/mL. Moreover, in [13], the Cmax is 150 ng/mL.

With `Fc1cc(COc2ccn3c(-c4cncnc4)cnc3n2)cc(F)c1Oc1ccc(Cl)c(C(F)(F)F)c1`, the results for the half-life at 0.1 µM in “in vitro [1]” and in “in vitro [2]” were 196 min and 212 min, respectively. In data set [3], this compound yielded an inhibition of 8%.

Take `FC(F)(F)c1cc(Oc2ccc(CCOc3ccn4c(-c5cncnc5)cnc4n3)cc2)ccc1Cl`: the half-life at 0.1 µM worked out at 110 min in “in vitro [1]” and 42 min in the data set “in vitro [2]”. Besides, the inhibition in data set [3] turned out to be 53%; in data set [8], 2%. Further, the CLint scaled at 0.1 µM in “in vitro [14]” amounted to 55.1 mL/min/kg; in the data set “in vitro [15]”, 34.3 mL/min/kg.

Consider `Fc1cc(COc2ccn3c(-c4cncnc4)cnc3n2)ccc1Oc1ccc(Cl)c(C(F)(F)F)c1`, for which the half-life at 0.1 µM came out at 169 min in “in vitro [1]” and 331 min in “in vitro [2]”. The inhibition in data set [3] worked out at 13%; in the data set filed under Rattus norvegicus [7], 11%. In addition, in the data set “in vivo [4]”, the half-life at 48 h is 800 min. The compound further yielded an inhibition in vivo at 25 mg/kg in the data set with Rattus norvegicus [5] of 75%. For the same compound, in “in vivo [6]”, the Cmax at 48 h stood at 2600 ng/mL. Moreover, the inhibition result in the data set listed under Rattus norvegicus [9] is “Active”. The same compound gave a total exposure AUC(0-inf) at 48 h in “in vivo [10]” of 78100 ng·h/mL.

The values above are taken from ChEMBL document CHEMBL3632460, “Discovery of a Novel Series of Imidazo[1,2-a]pyrimidine Derivatives as Potent and Orally Bioavailable Lipoprotein-Associated Phospholipase A2 Inhibitors” (J Med Chem, 2015).
